# Experimental data as given in US10302660B2, “Methods useful for vitamin D deficiency and related disorders” (OPKO RENAL, LLC, priority 2008, dated 2019).
# “Also recorded” adds a separate entry of the source.
# How the values were obtained:
# [1] = tested on: parathyroid hormone (PTH); assay: Serum intact PTH (iPTH Elisa Kit) in adenine-fed rats treated with vitamin D compounds; assay type: in vivo; details: treated for one week, versus control-fed animals (FIG. 2)
# From the text: To obtain an animal model of vitamin D deficiency, rats were fed an adenine-rich diet.
# [2] = Vitamin D hormone status: 1,25-(OH)2-D3 level by mass spectrometry in adenine-fed rats; assay type: in vivo; details: versus control-fed animals (FIG. 3)
# PTH = assay: Serum PTH by ELISA in uremic rats treated with 1,25-dihydroxyvitamin D3; assay type: in vivo, Sprague-Dawley rats; details: 0.5 mcg/kg i.v. daily for 7 days (FIG. 12)
# Protocol: (§1) CYP24 and CYP27B1 expression was measured using the same protocol outlined above in Example 6 with respect to FIG. 11. Serum levels of 25(OH)D3 and 1,25-dihydroxyvitamin D3 were measured by LC-MS. Serum PTH was measured by ELISA IMMUTOPICS (San Clemente, Calif., USA) according to manufacturer's instructions. Briefly, serum samples were spiked with [26,27-^2H6] 25(OH)D3 or [25,26-^2H6] 1,25-dihydroxyvitamin D3 and dissolved in acetonitrile to serve as an internal standard. 1,25-dihydroxyvitamin D3 or 25(OH)D3 and internal standards were extracted from serum using Accubond II ODS-C18 100 mg, 1 mL SPE cartridges (Agilent Technologies). The collected fractions were evaporated to dryness under a steady stream of nitrogen gas and the residues reconstituted in 50 μL of methanol/H2O (80/20; v/v) and analyzed using LC-MS/MS (Waters Alliance HPLC—Waters Quattro Ultima mass spectrometer). Relative expression values are normalized to the vehicle-treated group (relative expression=1).
# [3] = Serum 25(OH)D3 by LC-MS in uremic rats treated with 1,25-dihydroxyvitamin D3; assay type: in vivo, Sprague-Dawley rats; details: 0.5 mcg/kg i.v. daily for 7 days (FIG. 12)
# Protocol: as §1
# CYP24 [4] = assay: CYP24 gene expression by real-time PCR in normal and adenine-induced uremic rats dosed with 1,25-dihydroxyvitamin D3; assay type: in vivo, Sprague-Dawley rats
# Protocol: Sprague-Dawley rats were treated i.v. daily with vehicle or 0.5 mcg/kg 1,25-dihydroxyvitamin D3 for 1 week. Organs were collected 24 hours after the last dosing. CYP24 gene expression was determined by real-time PCR.
# Sprague-Dawley rats were fed a standard diet (normal) or a uremia-inducing diet containing 0.75% adenine (uremic) for 4 weeks. Animals were then dosed i.v. daily with vehicle or 0.5 mcg/kg 1,25-dihydroxyvitamin D3 for 7 days. Organs were collected 24 hours after the final dosing. CYP24 gene expression was determined by real-time PCR and normalized to GAPDH levels. Relative expression values are normalized to the vehicle-treated group (relative expression=1).
# “*” denotes a significant difference in CYP24 expression between vehicle and 1,25-dihydroxyvitamin D3 treatment in normal and uremic rats. “**” represents a significant difference between vehicle-treated normal and uremic rats. “ ? ” denotes significant difference in CYP24 induction levels between normal and uremic rats treated with 1,25-dihydroxyvitamin D3. Significance was set at a p value cutoff of <0.05. Data are presented as mean±SEM. Numerals above each bar signifies relative fold induction to normal-vehicle.
# as §1, with “Relative expression values are normalized to the vehicle-treated group (relative expression=1).” left out
# [5] = 1,25-dihydroxyvitamin D3 levels in vitamin D deficient uremic versus vitamin D deficient rats dosed with 25-hydroxyvitamin D; assay type: in vivo; details: after dosing for two weeks; vitamin D deficient uremic rats compared to vitamin D deficient animals (FIG. 19)
# CYP24 [6] = assay: Kidney CYP24 mRNA (real-time PCR) in vitamin D deficient rats treated with 25-hydroxyvitamin D3; assay type: in vivo, Sprague Dawley rats; details: vitamin D deficient animals after treatment; 0.6, 3 or 18 mcg/kg daily for two weeks (FIG. 17)
# Protocol: Sprague Dawley rats were fed either a normal diet or a vitamin D deficient diet for a period of four weeks. Animals were then injected daily for two weeks with either 25-hydroxyvitamin D3 at 0.6, 3, or 18 mcg/kg or vehicle as per the axis label in FIG. 17. Kidneys were collected 24 hours after the last injection and CYP24 mRNA levels were measured by real-time PCR.
# CYP24 [7] = assay: Kidney CYP24 mRNA (real-time PCR) in uremic (adenine) vitamin D deficient rats treated with 25-hydroxyvitamin D3; assay type: in vivo, Sprague Dawley rats; details: uremic vitamin D deficient rats after treatment; 0.6 or 18 mcg/kg daily for two weeks (FIG. 18)
# Protocol: Sprague Dawley rats were fed either a normal diet (Adenine Vehicle group) or a vitamin D deficient diet (Vit. D def./Adenine Vehicle group) for a period of four weeks. Following this treatment, animals were orally administered, daily for two weeks, 100 mg of adenine. Animals were then injected daily for another two weeks with either 25-hydroxyvitamin D3 at 0.6 or 18 mcg/kg or vehicle as per the axis label in FIG. 18. Kidneys were collected 24 hours after the last injection and CYP24 mRNA levels were measured by real-time PCR.
# CYP24 [8] = assay: CYP24 induction (real-time PCR) in HEK cells with 1,25-dihydroxyvitamin D3 alone or with CYP24 inhibitor; assay type: cell-based; details: 10 nM inhibitor with 10 nM 1,25-dihydroxyvitamin D3, 6, 24, 48 and 72 hours (FIG. 14)
# Protocol: HEK cells were seeded at 25,000 cells per well (24-well plate) and incubated with 1,25-dihydroxyvitamin D3 (10 nM) alone or with a CYP24 inhibitor (MK-24(S)—S(O)(NH)-Ph-1, see U.S. Pat. No. 7,101,865, compound I(a)) (10 nM) for 6, 24, 48 and 72 hours. Cells were collected and RNA was prepared using TRIZOL® reagent. CYP24 was quantified using real-time PCR.
# HEK cells = assay: [3H]-thymidine incorporation in HEK cells, 1,25-dihydroxyvitamin D3 with CYP24 inhibitor; assay type: cell-based; details: cultured HEK cells, inhibitor at 0, 1, 10 and 50 nM (FIG. 15)
# Protocol: HEK cells were transferred into 96-well plates at 2000 cells/well density. After 2 days of growth in 96-well plates the cells were treated with 1,25-dihydroxyvitamin D3 at the final concentrations 10^−6-10^−11 M in combination with the MK-24(S)—S(O)(NH)-Ph-1 compound with the varied final concentration of 0, 1, 10 and 50 nM. After overnight treatment [^3H]-thymidine was added to cells, […]/well in KGM media for 16 h. The radioactivity incorporation was counted using a scintillation counter after the addition of […] of scintillation fluid. The data were represented as an incorporation of thymidine in cpm depending on 1,25-dihydroxyvitamin D3 concentration. Each data point represents at least 4 independent trials.
# CYP24 [9] = assay: CYP24 RNA expression in HPK1a-ras cells, 1,25-dihydroxyvitamin D3 with or without FGF23; assay type: cell-based; details: 100 ng/mL FGF23 with 0, 1, 10, 100 nM calcitriol, after 8 hours (FIG. 16)
# Protocol: HPK1a-ras cells were treated with 0, 1, 10, and 100 nM of 1,25-dihydroxyvitamin D3 (calcitriol), with or without 100 ng/mL of FGF23, and CYP24 RNA expression was measured after 8 hours.
molecule,measurement,setting,value
"C=C1/C(=C\C=C2/CCC[C@]3(C)[C@@H]([C@H](C)/C=C/[C@H](C)C(C)(C)O)CC[C@@H]23)C[C@@H](O)C[C@@H]1O [1,25-(OH)2-D2, 1,25-dihydroxyvitamin D2]",iPTH level,[1],restored to a level similar to control-fed animals
same,"1,25-(OH)2-D3 levels (vitamin D hormone status)",[2],did not significantly affect
"C=C1/C(=C\C=C2/CCC[C@]3(C)[C@@H]([C@H](C)CCCC(C)(C)O)CC[C@@H]23)C[C@@H](O)C[C@@H]1O [1,25-(OH)2-D3, 1,25-dihydroxyvitamin D3]",PTH,PTH,reduction
same,iPTH level,[1],restored to a level similar to control-fed animals
same,serum 25-(OH)D3 levels,[3],reduction
same,"1,25-(OH)2-D3 levels (vitamin D hormone status)",[2],restored to the level of control-fed animals
same,induced expression of CYP24,"CYP24 [4]; parathyroid gland, uremic compared to normal animals, 0.5 mcg/kg i.v. daily for 7 days (FIG. 11)",significantly induced; also recorded: markedly greater
same,CYP24 gene expression,"CYP24 [4]; tissues from both normal and uremic rats, 0.5 mcg/kg i.v. daily",strongly induced
same,CYP24 expression,"CYP24 [4]; uremic rats, 0.5 mcg/kg i.v. daily for 7 days (FIG. 12)",drastically induces
"C=C1CC[C@H](O)C/C1=C/C=C1\CCC[C@]2(C)[C@@H]([C@H](C)CCCC(C)(C)O)CC[C@@H]12 [25-OH-D3, 25-hydroxyvitamin D3]","levels of 1,25-dihydroxyvitamin D3",[5],lower
same,CYP24 levels,CYP24 [6],increase to normal or higher levels
same,iPTH level,[1],restored to a level similar to control-fed animals
same,CYP24 levels,CYP24 [7],do not increase
same,"1,25-(OH)2-D3 levels (vitamin D hormone status)",[2],did not significantly affect
"C=C1/C(=C\C=C2/CCC[C@]3(C)[C@@H]([C@H](C)CCC[S@](=N)(=O)c4ccccc4)CC[C@@H]23)C[C@@H](O)C[C@@H]1O [MK-24(S)—S(O)(NH)-Ph-1, (5Z,7E)-(1S,3R)-24-(S)-phenylsulfoximine-25-nor-9,10-seco-5,7,10(19)-cholestatriene-1,3-diol]","CYP24 induction by 1,25-dihydroxyvitamin D3 in the presence of CYP24 inhibitor",CYP24 [8],markedly extended
same,"enhancement of the anti-proliferative effects of 1,25-dihydroxyvitamin D3",HEK cells,approximately 3 orders of magnitude
"FGF23: fibroblast growth factor-23 (protein, UniProt Q9GZV9 25-251, looked up) Fibroblast growth factor 23: YPNASPLLGSSWGGLIHLYTATARNSYHLQIHKNGHVDGAPHQTIYSALMIRSEDAGFVVITGVMSRRYLCMDFRGNIFGSHYFDPENCRFQHQTLENGYDVYHSPQYHFLVSLGRAKRAFLPGMNPPPYSQFLSRRNEIPLIHFNTPIPRRHTRSAEDDSERDPLNVLKPRARMTPAPASCSQELPSAEDNSPMASDPLGVVRGGRVNTHAGGTGPEGCRPFAKFI","CYP24 RNA production, effect with 1,25-dihydroxyvitamin D3",CYP24 [9],synergizes
